# Results from patent publication US12721835B2, “Anticoccidial composition comprising violacein, and use thereof” (CJ CHEILJEDANG CORPORATION, priority 2020, dated 2026).
# What was measured:
# [1] = system: Eimeria tenella, Eimeria acervulina, and Eimeria maxima; assay: In vivo anticoccidial activity upon complex inoculation of 3 kinds of protozoa (broilers, formulated feed); parameters: Oocyst index: scale not given here; details: 3 kinds infection; for Lesion index: lesion score x 10; for ACI: out of 200 points; for Lesion score: sum of duodenum, jejunum and appendix; for RWG(%): vs non-infected negative control
# Protocol: An in vivo anticoccidial efficacy evaluation test was performed in an animal experiment facility in Chungcheongnam-do, South Korea. One-day-old male Ross broilers were individually weighed and randomly divided into groups to use in an experiment. Matters and conditions for experimental design were described in Table 5.
# A breeding farm was managed according to the Korean poultry breeding management guidelines. Cages and the breeding farm were cleaned and disinfected before starting the test. The temperature of […] and the humidity of 40 to 50% of the breeding farm were maintained, and it was continuously monitored.
# The feed was mixed in Neobase, and each material (salinomycin (Cheilbio Cheilsalino-60 product), violacein (CJ Cheiljedang)) was added to the feed, respectively, at a concentration described in Table 6 below to be self-mixed. Antibiotics and supplements were not used in general feed and mixed feed, and no anticoccidial agent other than each material was added. Broilers were fed ad libitum throughout the experiment period. After putting 8 1-day-age broilers in cages randomly placed for each of the control group or test group and breeding, general feed (Al-choi product) was fed for 7 days, and then the mixed feed prepared above was ingested by dividing by control group or test group.
# The feed formulation administered to the control group (negative control group or positive control group) and test group and whether coccidiosis was induced by three kinds of protozoa were described in Table 6 below.
# Coccidiosis induction was performed by oral inoculation (challenge inoculation) in an oral tube type of 10,000, 50,000, 50,000 oocysts (eggs) with over 90% mature (sporulation) Eimeria tenella, Eimeria acervulina, and Eimeria maxima per one individual to 14-day-old broilers.
# The anticoccidial efficacy by test group designed in Example 2-2 above was shown as an anticoccidial index (ACI), and the anticoccidial index was calculated by the similar method to Example 1-3 above. However, in the present example, the protozoa of Eimeria tenella, Eimeria acervulina, and Eimeria maxima were challenge inoculated, so the lesion score was calculated by summing the scores for each of the duodenum, jejunum and appendix, respectively, differently from Example 1-3.
# [2] = system: Eimeria tenella; assay: Intracellular protozoan propagation inhibition in MDBK cells (ITS-1 PCR); type: cell-based; details: read-out: Intracellular protozoan propagation inhibitory effect (%)
# Protocol: In the present example, using MDBK cell line which is a representative animal cell known to cause Eimeria infection and propagation, the inhibition ability of intracellular protozoan invasion and intracellular protozoal propagation of the violacein was investigated.
# 100,000 MDBK cells (purchased from ATCC) were aliquoted in a 24-well plate, and then incubated at a temperature of 37° C. for 12 hours. The protozoan of Eimeria tenella was obtained similar to the method of Example 3 above. 200,000 protozoa per one well were added to wells in which cells were aliquoted, and cultured at a temperature of 41° C. for 24 hours, and then the cells were washed using PBS solution twice to remove protozoa which were not attached to the cells. Each material (violacein and anticoccidial agents, salinomycin, diclazuril and gallic acid) was treated to the cells by concentration, and further cultured at a temperature of 41° C. for 24 hours. A negative control group is a MDBK cell infected by protozoa, and a positive control group means a group in which salinomycin and diclazuril solution was incubated with the Eimeria tenella protozoan. After removing the cells and protozoa inside the cells through pipetting, DNA was extracted from the cells, and PCR was performed using E. tenella ITS-1 (Internal transcribed spacer-1) gene-specific primers. The sequences of the used primers were described in Table 9 above.
# The intracellular protozoan propagation inhibition rate (%) through treatment of the material was calculated by comparing Ct values in the material treatment groups compared to the negative control group, and the result was shown in FIG. 3 and Table 10.
# [3] = system: Eimeria maxima (E. maxima) protozoa (sporozoites); assay: Acid resistance of violacein: protozoal death rate after acid exposure; type: cell-based
# Protocol: In the present example, the acid resistance of the violacein was to be evaluated. […] Then, it was neutralized (pH 7.0) by adding sodium hydroxide (NaOH) solution, and 200,000 Eimeria maxima (E. maxima) protozoa (sporozoites) were exposed to the violacein at various concentrations of 0.1 to 100 ppm diluted using PBS solution, and they were reacted at a temperature of 41° C. for 4 hours. In Table 11, the control group means a violacein treatment group without treating the acidic condition, and the protozoa alone means a group to which violacein was not treated.
compound,measurement,setting,value
"CC[C@@H](C(=O)[C@@H](C)[C@@H](O)[C@H](C)[C@@H]1O[C@@H]([C@@H](CC)C(=O)O)CC[C@@H]1C)[C@H]1O[C@]2(C=C[C@@H](O)[C@]3(CC[C@@](C)([C@H]4CC[C@](O)(CC)[C@H](C)O4)O3)O2)[C@H](C)C[C@@H]1C [Salinomycin, salinomycin, reference compound]",ADG(g/d) after challenge inoculation,[1]; feed 60 ppm,46.6 g/day
same,Oocyst excretion amount/g,[1]; feed 60 ppm,540000 g⁻¹
same,Oocyst index,[1]; feed 60 ppm,20.0
same,Survival rate after challenge inoculation (%),[1]; feed 60 ppm,100%
same,Lesion index,[1]; feed 60 ppm,55
same,ACI,[1]; feed 60 ppm,130
same,Lesion score,[1]; feed 60 ppm,5.5
same,RWG(%),[1]; feed 60 ppm,105.1%
same,inhibition at 5 ppm,"[2]; MDBK, 24 h",32.2%
same,inhibition at 10 ppm,"[2]; MDBK, 24 h",34.8%
"O=C1N=c2ccccc2=C1c1cc(-c2c[nH]c3ccc(O)cc23)[nH]c1O [Violacein, 3-(2-(5-Hydroxyindol-3-yl)-5-oxo-2-pyrrolin-4-ylidene)-2-indolinone]",ADG(g/d) after challenge inoculation,[1]; feed 10 ppm,40.4 g/day
same,Oocyst excretion amount/g,[1]; feed 10 ppm,680000 g⁻¹
same,Oocyst index,[1]; feed 10 ppm,31.4
same,Survival rate after challenge inoculation (%),[1]; feed 10 ppm,100%
same,Lesion index,[1]; feed 10 ppm,51
same,ACI,[1]; feed 10 ppm,109
same,Lesion score,[1]; feed 10 ppm,5.1
same,RWG(%),[1]; feed 10 ppm,91.1%
same,ADG(g/d) after challenge inoculation,[1]; feed 15 ppm,45.2 g/day
same,Oocyst excretion amount/g,[1]; feed 15 ppm,380000 g⁻¹
same,Oocyst index,[1]; feed 15 ppm,15.7
same,Survival rate after challenge inoculation (%),[1]; feed 15 ppm,100%
same,Lesion index,[1]; feed 15 ppm,31
same,ACI,[1]; feed 15 ppm,155
same,Lesion score,[1]; feed 15 ppm,3.1
same,RWG(%),[1]; feed 15 ppm,102.0%
same,ADG(g/d) after challenge inoculation,[1]; feed 20 ppm,42.1 g/day
same,Oocyst excretion amount/g,[1]; feed 20 ppm,1.56e+06 g⁻¹
same,Oocyst index,[1]; feed 20 ppm,22.9
same,Survival rate after challenge inoculation (%),[1]; feed 20 ppm,100%
same,Lesion index,[1]; feed 20 ppm,40
same,ACI,[1]; feed 20 ppm,132
same,Lesion score,[1]; feed 20 ppm,4.0
same,RWG(%),[1]; feed 20 ppm,95%
same,inhibition at 0.5 ppm,"[2]; MDBK cells, 0.5 ppm, treated after invasion, 24 hours",53.7%
same,inhibition at 1 ppm,"[2]; MDBK cells, 1 ppm, treated after invasion, 24 hours",45.8%
same,Death rate according to violacein treatment condition,"[3]; Control group (no acidic condition), 0.1 ppm",64%
same,Death rate according to violacein treatment condition,"[3]; Control group (no acidic condition), 1 ppm",85%
same,Death rate according to violacein treatment condition,"[3]; Control group (no acidic condition), 10 ppm",100%
same,Death rate according to violacein treatment condition,"[3]; Control group (no acidic condition), 100 ppm, 41° C. 4 hours",100.00%
same,Acid resistance (killing efficacy after strong acidic condition),"[3]; acidic pH, 40° C., 1 hour, then neutralized",did not lose the killing efficacy
same,Death rate according to violacein treatment condition,"[3]; pH 2, 1 h, 0.1 ppm",64%
same,Death rate according to violacein treatment condition,"[3]; pH 2, 1 h, 1 ppm",84%
same,Death rate according to violacein treatment condition,"[3]; pH 2, 1 h, 10 ppm",99%
same,Death rate according to violacein treatment condition,"[3]; pH 2, 1 h, 100 ppm",100.00%
same,Death rate according to violacein treatment condition,"[3]; pH 2.5, 1 h, 0.1 ppm",61%
same,Death rate according to violacein treatment condition,"[3]; pH 2.5, 1 h, 1 ppm",83%
same,Death rate according to violacein treatment condition,"[3]; pH 2.5, 1 h, 10 ppm",99%
same,Death rate according to violacein treatment condition,"[3]; pH 2.5, 1 h, 100 ppm",100.00%
same,Death rate according to violacein treatment condition,"[3]; pH 3, 1 h, 0.1 ppm",63%
same,Death rate according to violacein treatment condition,"[3]; pH 3, 1 h, 1 ppm",86%
same,Death rate according to violacein treatment condition,"[3]; pH 3, 1 h, 10 ppm",99%
same,Death rate according to violacein treatment condition,"[3]; pH 3, 1 h, 100 ppm",100.00%
